Values after ≈ are worked out from the molar mass of the structure shown.
Columns and labels:
[1] = Kinetic solubility in PBS pH 7.4, HPLC-UV (Example 21, Table 27); format: physicochemical; settings: phosphate buffered saline, aqueous buffer, kinetic from dmso stock, 0.5 M PBS, shaken minimum 24 h at approximately 25° C., HPLC-UV 270 nm
Procedure, shortened: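 Supernatant measured by HPLC-UV (270 nm) against a DMSO calibration curve of 15.6–500.0 μM after filtration. Triplicate samples were made from 10 mM DMSO stock in 0.05 M phosphate buffer pH 7.4 (5% DMSO) and shaken at least 24 h at about 25 °C.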

Human C5 [2] = biological target: T1, Human C5 (Homo sapiens, UniProt P01031); assay: Red blood cell (RBC) hemolysis assay, luminescent (Example 13, Table 22); format: cell-based; settings: sheep EA cells, […] C5-depleted human serum, 0.5 nM human C5, 1 hour 37° C., luminescence
T1 construct: purchased Complement Technology
T1 sequence (P01031 19-1676): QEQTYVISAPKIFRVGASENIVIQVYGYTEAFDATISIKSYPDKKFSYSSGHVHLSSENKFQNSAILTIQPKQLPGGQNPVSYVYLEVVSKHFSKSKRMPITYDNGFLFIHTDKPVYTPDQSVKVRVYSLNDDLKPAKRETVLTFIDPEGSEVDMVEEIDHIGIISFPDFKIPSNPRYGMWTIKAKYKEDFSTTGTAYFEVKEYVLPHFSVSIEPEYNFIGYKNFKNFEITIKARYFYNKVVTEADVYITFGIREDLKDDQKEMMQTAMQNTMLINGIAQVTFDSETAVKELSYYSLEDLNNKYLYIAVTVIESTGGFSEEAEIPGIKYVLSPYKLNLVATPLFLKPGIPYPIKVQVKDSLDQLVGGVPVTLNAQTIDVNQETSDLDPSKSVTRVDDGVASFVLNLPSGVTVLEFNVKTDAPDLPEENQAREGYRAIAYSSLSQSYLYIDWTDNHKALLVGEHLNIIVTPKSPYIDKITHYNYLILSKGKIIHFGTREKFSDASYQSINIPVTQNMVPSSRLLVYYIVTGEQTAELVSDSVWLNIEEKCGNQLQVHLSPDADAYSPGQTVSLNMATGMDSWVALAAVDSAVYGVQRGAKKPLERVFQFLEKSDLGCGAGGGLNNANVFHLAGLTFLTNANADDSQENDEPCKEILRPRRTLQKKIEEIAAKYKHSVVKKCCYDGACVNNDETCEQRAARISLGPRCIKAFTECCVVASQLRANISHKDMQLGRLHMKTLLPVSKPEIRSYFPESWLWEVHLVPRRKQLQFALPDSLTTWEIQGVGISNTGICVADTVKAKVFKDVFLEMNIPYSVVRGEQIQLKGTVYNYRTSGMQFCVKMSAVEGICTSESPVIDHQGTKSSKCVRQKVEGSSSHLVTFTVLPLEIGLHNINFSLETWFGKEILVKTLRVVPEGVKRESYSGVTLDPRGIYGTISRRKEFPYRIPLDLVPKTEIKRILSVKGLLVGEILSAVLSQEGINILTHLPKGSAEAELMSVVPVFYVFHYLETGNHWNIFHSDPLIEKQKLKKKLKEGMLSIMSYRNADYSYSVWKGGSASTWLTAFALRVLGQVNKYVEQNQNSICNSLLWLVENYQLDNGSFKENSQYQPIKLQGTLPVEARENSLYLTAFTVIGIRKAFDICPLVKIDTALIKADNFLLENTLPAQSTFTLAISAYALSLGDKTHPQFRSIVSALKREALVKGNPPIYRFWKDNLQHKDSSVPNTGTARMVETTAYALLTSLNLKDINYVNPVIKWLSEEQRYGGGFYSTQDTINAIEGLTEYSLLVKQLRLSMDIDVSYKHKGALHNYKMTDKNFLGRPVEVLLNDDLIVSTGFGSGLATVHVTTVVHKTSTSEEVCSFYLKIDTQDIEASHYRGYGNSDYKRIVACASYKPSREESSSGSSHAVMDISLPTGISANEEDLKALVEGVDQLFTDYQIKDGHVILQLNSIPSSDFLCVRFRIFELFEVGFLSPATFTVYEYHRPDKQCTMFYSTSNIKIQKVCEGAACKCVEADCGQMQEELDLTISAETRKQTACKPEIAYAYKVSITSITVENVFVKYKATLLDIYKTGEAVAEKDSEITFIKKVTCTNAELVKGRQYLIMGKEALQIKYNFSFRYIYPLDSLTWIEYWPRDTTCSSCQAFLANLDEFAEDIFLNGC
Text: Compound CU0136 is a racemic mixture of Compound CU0186 and CU0187. Numbers in parenthesis following compound numbers indicate alternate enantiomers (as distinguished by retention time during chromatographical separation).

[3] = Permeability assay, unidirectional transport, Papp (Example 30, Table 34); format: in vitro ADME, canine; settings: dog, pH 7.4; MDCK-WT cell monolayers, A-to-B, 3 μM test compound, 37° C., duplicate determinations
Experimental: Permeability assays were carried out to provide a preliminary indication of suitability for oral dosing and compound permeability across the blood brain barrier. Unidirectional and bidirectional compound transport across Madin Darby canine kidney (MDCK) cell monolayers was assessed. For unidirectional transport assessment, transport across MDCK wild type (MDCK-WT) cell monolayers was assessed. For bidirectional transport, transport across MDCK-MDR1 cell monolayers was assessed. MDCK-MDR1 cells express the MDR1 gene encoding the P-glycoprotein (P-gp) efflux protein.
MDCK-WT and MDCK-MDR1 cells were plated onto permeable polycarbonate supports in 12-well Costar transwell plates and allowed to grow and differentiate for 3 days. After 3 days in culture, the culture medium (DMEM supplemented with 10% FBS) was removed from both sides of the transwell inserts and cells were rinsed with warm HBSS. After the rinse step, the chambers were filled with warm transport buffer (HBSS containing 10 mM HEPES, 0.25% BSA, pH 7.4) and the plates were pre-incubated at 37° C. for 30 minutes prior to TEER (Trans Epithelial Electric Resistance) measurements.
The buffer in the donor chamber (apical side for A-to-B assay, basolateral side for B-to-A assay) was removed and replaced with the working solution (3 μM test compound and 10 μM for control compounds in transport buffer). The plates were then placed at 37° C. under light agitation. At designated time points (30, 60 and 90 min), an aliquot of transport buffer from the receiver chamber was removed and replenished with fresh transport buffer. Samples were quenched with ice-cold ACN containing internal standard and then centrifuged to pellet protein. Resulting supernatants were further diluted with 50/50 ACN/H2O (Atenolol diluted in just water) and submitted for LC-MS/MS analysis. Apparent permeability (Pap) values were calculated from duplicate determinations. Atenolol and propranolol were tested as low and […] permeability references.
Papp values indicate extent of compound permeation across monolayers.

[4] = biological target: T2, human C5 complement protein (Homo sapiens, UniProt P01031); assay: Surface plasmon resonance (SPR), immobilized human C5, 37° C. (Example 18, Table 24); format: binding; settings: lowest value obtained where a range of concentrations was analyzed
T2 sequence (P01031 19-1676): as above

Human C5 [5] = biological target: T1, Human C5; assay: Red blood cell (RBC) hemolysis assay, luminescent (Example 28, Table 32); format: cell-based; settings: sheep EA cells, 1.5% C5-depleted human serum, 0.5 nM human C5, 1 hour at 37° C., luminescence (Table 32)
[6] = biological target: T2, human C5 complement protein; assay: Surface plasmon resonance (SPR), immobilized human C5, 37° C. (Example 27, Table 31); format: binding; settings: lowest value obtained where a range of concentrations was analyzed (Table 31)

Row | Structure (SMILES) | solubility kinetic [1] [µM] | Papp A→B at 3 μM [3] [×10⁻⁶ cm/s] | Kd [4] [nM] | Kd [6] [nM] | IC50 (Human C5 [2]) [nM] | IC50 (Human C5 [5]) [nM]
1 | COc1cc(CC(=O)N2CCOCC2)ccc1CN1CCCN(c2ccc(OC)c(OCCCC3CC3)c2)C1=O [CU0511] | 310 (≈ 171 µg/mL) | 16.6 | 0.47 |  |  | 
2 | CCCCCOc1cc(N2CCCN(Cc3cccc4c3ccn4CC3(O)CCN(CC(=O)N(C)C)CC3)C2=O)ccc1OC [CU0675] | 430 (≈ 267 µg/mL) |  | 0.86 |  |  | 
3 | COc1cc(CC(=O)N2CC[C@H](N(C)C)C2)ccc1CN1C(=O)N(c2ccc(OC)c(OCCCC3CC3)c2)CC[C@@H]1C [SC0101] |  | 4.7 |  |  |  | 0.9
4 | COc1cc(Cc2ccncn2)ccc1CN1C(=O)N(c2ccc(OC)c(OCCCC3CC3)c2)CC[C@@H]1C [SC0102] |  | 18.2 |  |  |  | 0.9
5 | CCCCCOc1cc(N2CC[C@H](C)N(Cc3cccc4c3c(C)cn4CC(=O)N3CCCOCC3)C2=O)ccc1OC [SC0103] | 24 (≈ 14.2 µg/mL) |  |  | 0.08 |  | 1
6 | CCCCCOc1cc(N2CC(CO)CN(Cc3ccc(CNC(=O)c4cocn4)cc3OC)C2=O)ccc1OC (stereo not shown) [SC0104] | < 10 |  |  | 0.89 |  | 1.1
7 | CCCCCOc1cc(N2CC[C@H](C)N(Cc3cccc4c3c(C)cn4CC(=O)N(C)C3CCN(CC)C3)C2=O)ccc1OC (stereo partly shown) [SC0105] | 399 (≈ 247 µg/mL) |  |  | 0.08 |  | 1.1
8 | CCCCCOc1cc(N2CC[C@H](C)N(Cc3ccnc4c3c(Cl)cn4CC(=O)N3CCNC(=O)C3)C2=O)ccc1OC [SC0106] | 119 (≈ 72.7 µg/mL) |  |  | 0.08 |  | 1.1
9 | CCCCCOc1cc(N2CC[C@H](C)N(Cc3cccc4c3c(C)cn4CC(=O)N(C)C)C2=O)ccc1OC [SC0107] | 52 (≈ 27.8 µg/mL) |  |  | 0.36 |  | 1.1
10 | CCCCCOc1cc(N2CC[C@H](C)N(Cc3ccnc4c3c(Cl)cn4CC(=O)N(C)C)C2=O)ccc1OC [SC0108] | 141 (≈ 78.4 µg/mL) | 21.7 |  |  |  | 
11 | CCCCCOc1cc(N2CC[C@H](C)N(Cc3ccnc4c3c(Cl)cn4CC(=O)N3CC(C)(O)C3)C2=O)ccc1OC [SC0111] |  | 2.5 |  |  |  | 1.3
12 | COc1cc(CC(=O)N[C@H]2CCNC2)ccc1CN1C(=O)N(c2ccc(OC)c(OCCCC3CC3)c2)CC[C@@H]1C [SC0114] | 252 (≈ 142 µg/mL) | 0.1 |  |  |  | 1.3
13 | COc1cc(CC(=O)N[C@H]2CN(C)C[C@H]2F)ccc1CN1C(=O)N(c2ccc(OC)c(OCCCC3CC3)c2)CC[C@@H]1C [SC0123] |  | 4.8 |  |  |  | 1.5
14 | COc1ccc(N2CC[C@H](C)N(Cc3cccc4c3c(Cl)cn4CC(=O)N(C)C)C2=O)cc1OCCCC1CCC1 [SC0125] |  |  |  | 0.09 |  | 1.6
15 | CCN1CC[C@@H](N(C)C(=O)Cc2ccc(CN3C(=O)N(c4ccc(OC)c(OCCCC5CC5)c4)CC[C@@H]3C)c(OC)c2)C1 [SC0144] |  | 3 |  |  |  | 2.1
16 | CCCCCOc1cc(N2CC[C@H](C)N(Cc3ccnc4c3c(Cl)cn4CC(=O)N[C@H]3CCN(C)C3)C2=O)ccc1OC [SC0147] |  | 0.7 |  |  |  | 2.2
17 | CCN1CC[C@H](N(C)C(=O)Cc2ccc(CN3C(=O)N(c4ccc(OC)c(OCCCC5CC5)c4)CC[C@@H]3C)c(OC)c2)C1 [SC0149] |  | 3.5 |  |  |  | 2.2
18 | CCCCCOc1cc(N2CC(C)CN(Cc3ccc(CNC(=O)c4cnco4)cc3OC)C2=O)ccc1OC (stereo not shown) [SC0159] |  |  |  | 0.4 |  | 2.7
19 | COc1ccc(N2CC[C@H](C)N(Cc3cccc4c3ccn4CC(=O)N3CCOCC3)C2=O)cc1OCCCC1CC1 [SC0164] | 426 (≈ 245 µg/mL) | 14.3 |  |  |  | 2.9
20 | CCCCCOc1cc(N2CC[C@H](C)N(Cc3cccc4c3ccn4CC(=O)N(C)CC#N)C2=O)ccc1OC [SC0168] |  |  |  | 0.79 |  | 3.3
21 | CCCCCOc1cc(N2CC[C@H](C)N(Cc3cccc4c3c(Cl)cn4CC3=NCCN3C)C2=O)ccc1OC [SC0169] |  | 1.8 |  |  |  | 3.5
22 | CCCCCOc1cc(N2CC(C)CN(Cc3ccc(CNC(=O)c4cocn4)cc3OC)C2=O)ccc1OC (stereo not shown) [SC0170] |  |  |  | 0.77 |  | 3.7
23 | CCCCCOc1cc(N2CC[C@H](C)N(Cc3cccc4c3ccn4CC(=O)N3CCO[C@@H](CN(C)C)C3)C2=O)ccc1OC [SC0171] | 356 (≈ 221 µg/mL) | 2 |  |  |  | 3.7
24 | CCCCCOc1cc(N2CC[C@H](C)N(Cc3cccc4c3ccn4CC(=O)N3CCO[C@H](CN(C)C)C3)C2=O)ccc1OC [SC0177] | 309 (≈ 192 µg/mL) | 1.3 |  |  |  | 4.7
25 | COc1cc(CC(N)=O)ccc1CN1CC(C)CN(c2ccc(OC)c(OCCCC3CC3)c2)C1=O (stereo not shown) [SC0179] |  |  |  | 0.88 |  | 4.9
26 | CCCCCOc1cc(N2CC(C)CN(Cc3ccc(CC(=O)N4CCCOCC4)cc3OC)C2=O)ccc1OC (stereo not shown) [SC0186] |  |  |  | 1.85 |  | 5.8
27 | CCCCCOc1cc(N2CC(CO)CN(Cc3ccc(CC(=O)N4CCCOCC4)cc3OC)C2=O)ccc1OC (stereo not shown) [SC0190] |  |  |  | 2.8 |  | 7.1

Further lines, with some results ahead:

Row | solubility kinetic [1] [µM] | Papp A→B at 3 μM [3] [×10⁻⁶ cm/s] | Kd [4] [nM] | Kd [6] [nM] | Structure (SMILES) | IC50 (Human C5 [2]) [nM] | IC50 (Human C5 [5]) [nM]
28 | 479 (≈ 286 µg/mL) | 2.4 |  |  | CCCCCOc1cc(N2CCCN(Cc3ccc(CC(=O)N4CCOC(CN(C)C)C4)cc3OC)C2=O)ccc1OC (racemic) [CU0136] | 12.5 | 
29 | < 10 | 9.6 |  |  | CCCCCOc1cc(N2CCCN(Cc3ccnc4c3c(Cl)cn4C3CCOCC3)C2=O)ccc1OC [CU0513] |  | 
30 | 47 (≈ 26.8 µg/mL) | 1.1 | 0.82 |  | CCCCCOc1cc(N2CCCN(Cc3ccnc4c3c(Cl)cn4CC(=O)N3CC(O)C3)C2=O)ccc1OC [CU0518] |  | 
31 | 366 (≈ 224 µg/mL) | 3.9 |  |  | CCCCCOc1cc(N2CCCN(Cc3ccnc4c3c(Cl)cn4CC(=O)N3CC[C@@H](N(C)C)C3)C2=O)ccc1OC [CU0520] |  | 
32 | 413 (≈ 252 µg/mL) | 3.9 |  |  | CCCCCOc1cc(N2CCCN(Cc3ccnc4c3c(Cl)cn4CC(=O)N3CC[C@H](N(C)C)C3)C2=O)ccc1OC [CU0521] |  | 
33 | 486 (≈ 317 µg/mL) | 0.7 |  |  | COc1ccc(N2CCCN(Cc3ccnc4c3c(Cl)cn4CC(=O)N3CCOC(CN(C)C)C3)C2=O)cc1OCCCC1CC1 (stereo not shown) [CU0523] |  | 
34 | < 10 | 16.8 | 0.052 |  | CCCCCOc1cc(N2CCCN(Cc3ccnc4c3c(Cl)cn4CC(=O)N3CCOCC3)C2=O)ccc1OC [CU0526] |  | 
35 | 294 (≈ 189 µg/mL) | 1.7 | 0.056 |  | CCCCCOc1cc(N2CCCN(Cc3ccnc4c3c(Cl)cn4CC(=O)N3CCO[C@H](CN(C)C)C3)C2=O)ccc1OC [CU0533] |  | 
36 | 85 (≈ 50.8 µg/mL) | 17.4 | 0.363 |  | CCCCCOc1cc(N2CCCN(Cc3ccnc4c3c(Cl)cn4CC(=O)N3CC[C@@H](OC)C3)C2=O)ccc1OC [CU0534] |  | 
37 | < 10 |  |  | 0.18 | COc1ccc(N2CC[C@H](C)N(Cc3cccc4c3c(Cl)cn4CC(=O)N3CCOCC3)C2=O)cc1OCCCC1CC1 [SC0115] |  | 1.4
38 |  | 12.6 |  |  | CCCCCOc1cc(N2CC[C@H](C)N(Cc3ccnc4c3c(Cl)cn4CC(=O)N3CC(N4CCOCC4)C3)C2=O)ccc1OC [SC0117] |  | 1.4
39 | 266 (≈ 166 µg/mL) | 2.2 |  |  | COc1cc(CC(=O)N2CCO[C@H](CN(C)C)C2)ccc1CN1C(=O)N(c2ccc(OC)c(OCCCC3CC3)c2)CC[C@@H]1C [SC0134] |  | 1.8
40 | 486 (≈ 303 µg/mL) | 2.6 |  |  | COc1cc(CC(=O)N2CCO[C@@H](CN(C)C)C2)ccc1CN1C(=O)N(c2ccc(OC)c(OCCCC3CC3)c2)CC[C@@H]1C [SC0146] |  | 2.1
41 |  | 9.9 |  |  | CCCCCOc1cc(N2CC[C@H](C)N(Cc3ccnc4c3c(Cl)cn4CC(=O)N3CC(N(C)C)C3)C2=O)ccc1OC [SC0155] |  | 2.6
42 | 348 (≈ 228 µg/mL) | 1.3 |  |  | CCCCCOc1cc(N2CC[C@H](C)N(Cc3ccnc4c3c(Cl)cn4CC(=O)N3CCOC(CN(C)C)C3)C2=O)ccc1OC (stereo partly shown) [SC0156] |  | 2.6

— patent publication US20230115176A1 (Ra Pharmaceuticals, Inc., priority 2019, published 2023)
